# Values of other authors as cited in US20110144047A1, “COMBINED METHOD FOR PREDICTING THE RESPONSE TO AN ANTI-CANCER THERAPY” (DAKO DENMARK A/S, priority 2008, published 2011).
# Test system: murine fibro sarcoma cells derived from TIMP-1 gene-deficient mice
# Details: in vitro; previously published by the inventors
structure (smiles),measurement,value
COc1cc([C@@H]2c3cc4c(cc3[C@@H](O[C@@H]3O[C@@H]5CO[C@@H](C)O[C@H]5[C@H](O)[C@H]3O)[C@H]3COC(=O)[C@H]23)OCO4)cc(OC)c1O [etoposide],sensitivity of TIMP-1 gene-deficient cells compared with wild-type cells expressing TIMP-1,significantly more sensitive
